System: Metabolism protein genes
Assay: DNA chip mRNA expression in yeast, metabolism protein genes (Table 7)
Type: cell-based, Saccharomyces cerevisiae S288C
Protocol: Yeast (Saccharomyces cerevisiae S288C (α SUC2mal mel gap2 CUP1)) were incubated at 25° C. on YPD medium (yeast extract 1%, polypepton 2%, glucose 2%). One of toxic chemical substances was added to the cells at logarithmic growth phase, and the cells were further incubated for two hours. Cells were cultured without any chemical substance in the same condition, and were used as control. Concentrations of the chemical substances were defined to inhibit the growth of the yeast but not lead to death.
After completion of the incubation, the culture was centrifuged to collect the cells. To the cells, sodium acetate buffer (50 mM sodium acetate, 10 mM EDTA, 1% SDS) was added, and the mixture was shaken at 65° C. for five minutes, followed by returning to room temperature, and obtaining the supernatant, of which the procedures were repeated two times. To the supernatant, ½ amount of a solution of phenol/chloroform was added, and the mixture was centrifuged to give a supernatant, which was added with an equal amount of chloroform, and the mixture was centrifuged to give a supernatant. To the supernatant, an equal amount of isopropanol containing 0.3 M sodium acetate was added, and the mixture was allowed to stand at room temperature for 30 minutes, after which the mixture was centrifuged to give a sediment of the whole RNAs. Seventy % ethanol was added to the sediment, and the mixture was again centrifuged to give a sediment, which was then dried and dissolved in water. mRNA was isolated from the whole RNAs as followings. In view of the fact that a poly A chain is attached to the 3′ terminus of mRNA, a polynucleotide having a poly T structure which was immobilized on the surface of latex beads was used to trap the mRNA, and then the mRNA was washed and eluted with spine column (Oligotex-dT30<Super>mRNA Purification Kit, Takara). Reverse transcription of the mRNA was conducted with a reverse transcriptase (Super Script II Reverse Transcriptase; catalogue No. 18064-014, GibcoBRL) using fluorescence-labeled nucleotides to give cDNAs that were introduced with Cy3-dUTP or Cy5-dUTP during the reverse transcription.
The labeled cDNAs were dissolved in TE buffer (10mM Tris-HCl/1 mM EDTA, pH8.0), and the solution was dropped on the DNA chip containing the whole genes of yeast (DNA Chip Research Inc. Japan) so that the cDNAs were hybridized on the DNA chip at 65° C. for over 12 hours. The fluoresces intensity of the DNA chip was read with a scanner, and the ratio relative to the fluorescence intensity resulting from the absence of chemical substance was estimated as the following, which is shown in Tables 1 to 9: […]

SMILES: Oc1cc(Cl)c(Cl)cc1Cl [(6), 2,4,5-trichlorophenol]
- level of expressed mRNA in the presence/in the absence of chemical substance (yeast gene YMR323W): 0.4
- The level of expressed mRNA in the presence of chemical substance/The level of expressed mRNA in the absence of chemical substance (yeast gene YNL012W): 1.7
- level of expressed mRNA in the presence/in the absence of chemical substance (yeast gene YNL025C): 0.5
- The level of expressed mRNA in the presence of chemical substance/The level of expressed mRNA in the absence of chemical substance (yeast gene YNL037C): 2.8
- The level of expressed mRNA in the presence of chemical substance/The level of expressed mRNA in the absence of chemical substance (yeast gene YNL045W): 2.2
- The level of expressed mRNA in the presence of chemical substance/The level of expressed mRNA in the absence of chemical substance (yeast gene YNL104C): 0.8
- The level of expressed mRNA in the presence of chemical substance/The level of expressed mRNA in the absence of chemical substance (yeast gene YNL106C): 1.0
- The level of expressed mRNA in the presence of chemical substance/The level of expressed mRNA in the absence of chemical substance (yeast gene YNL169C): 1.4
- level of expressed mRNA in the presence/in the absence of chemical substance (yeast gene YNL192W): 0.6
- The level of expressed mRNA in the presence of chemical substance/The level of expressed mRNA in the absence of chemical substance (yeast gene YNL231C): 1.8
- The level of expressed mRNA in the presence of chemical substance/The level of expressed mRNA in the absence of chemical substance (yeast gene YNL322C): 1.1
- The level of expressed mRNA in the presence of chemical substance/The level of expressed mRNA in the absence of chemical substance (yeast gene YNL331C): 1.8
- The level of expressed mRNA in the presence of chemical substance/The level of expressed mRNA in the absence of chemical substance (yeast gene YNL332W): 1.1
- The level of expressed mRNA in the presence of chemical substance/The level of expressed mRNA in the absence of chemical substance (yeast gene YNR019W): 1.3
- The level of expressed mRNA in the presence of chemical substance/The level of expressed mRNA in the absence of chemical substance (yeast gene YNR033W): 1.6
- The level of expressed mRNA in the presence of chemical substance/The level of expressed mRNA in the absence of chemical substance (yeast gene YNR059W): 0.8
- The level of expressed mRNA in the presence of chemical substance/The level of expressed mRNA in the absence of chemical substance (yeast gene YOL058W): 0.8
- level of expressed mRNA in the presence/in the absence of chemical substance (yeast gene YOL086C): 1.7
- level of expressed mRNA in the presence/in the absence of chemical substance (yeast gene YOL108C): 0.9
- level of expressed mRNA in the presence/in the absence of chemical substance (yeast gene YOL116W): 0.7
- The level of expressed mRNA in the presence of chemical substance/The level of expressed mRNA in the absence of chemical substance (yeast gene YOL126C): 1.5
- The level of expressed mRNA in the presence of chemical substance/The level of expressed mRNA in the absence of chemical substance (yeast gene YOL143C): 3.5
- The level of expressed mRNA in the presence of chemical substance/The level of expressed mRNA in the absence of chemical substance (yeast gene YOL153C): 1.9
- level of expressed mRNA in the presence/in the absence of chemical substance (yeast gene YOL156W): 1.2
- The level of expressed mRNA in the presence of chemical substance/The level of expressed mRNA in the absence of chemical substance (yeast gene YOL165C): 1.7
- level of expressed mRNA in the presence/in the absence of chemical substance (yeast gene YOR002W): 1.1
- level of expressed mRNA in the presence/in the absence of chemical substance (yeast gene YOR085W): 0.6
- The level of expressed mRNA in the presence of chemical substance/The level of expressed mRNA in the absence of chemical substance (yeast gene YOR099W): 0.9
- level of expressed mRNA in the presence/in the absence of chemical substance (yeast gene YOR103C): 1.0
- level of expressed mRNA in the presence/in the absence of chemical substance (yeast gene YOR108W): 1.6
- level of expressed mRNA in the presence/in the absence of chemical substance (yeast gene YOR128C): 1.0
- The level of expressed mRNA in the presence of chemical substance/The level of expressed mRNA in the absence of chemical substance (yeast gene YOR130C): 1.6
- level of expressed mRNA in the presence/in the absence of chemical substance (yeast gene YOR142W): 1.6
- level of expressed mRNA in the presence/in the absence of chemical substance (yeast gene YOR176W): 0.9
- level of expressed mRNA in the presence/in the absence of chemical substance (yeast gene YOR178C): 2.7
- level of expressed mRNA in the presence/in the absence of chemical substance (yeast gene YOR251C): 0.9
- The level of expressed mRNA in the presence of chemical substance/The level of expressed mRNA in the absence of chemical substance (yeast gene YOR336W): 1.7
- The level of expressed mRNA in the presence of chemical substance/The level of expressed mRNA in the absence of chemical substance (yeast gene YOR347C): 0.9
- level of expressed mRNA in the presence/in the absence of chemical substance (yeast gene YOR348C): 0.7
- The level of expressed mRNA in the presence of chemical substance/The level of expressed mRNA in the absence of chemical substance (yeast gene YPL017C): 1.5
- level of expressed mRNA in the presence/in the absence of chemical substance (yeast gene YPL028W): 1.2
- level of expressed mRNA in the presence/in the absence of chemical substance (yeast gene YPL057C): 0.6
- level of expressed mRNA in the presence/in the absence of chemical substance (yeast gene YPL135W): 1.3
- level of expressed mRNA in the presence/in the absence of chemical substance (yeast gene YPL148C): 0.6
- level of expressed mRNA in the presence/in the absence of chemical substance (yeast gene YPR113W): 1.1
- The level of expressed mRNA in the presence of chemical substance/The level of expressed mRNA in the absence of chemical substance (yeast gene YPR160W): 4.5
- level of expressed mRNA in the presence/in the absence of chemical substance (yeast gene YPR165W): 1.8
- The level of expressed mRNA in the presence of chemical substance/The level of expressed mRNA in the absence of chemical substance (yeast gene YPR167C): 2.6
- level of expressed mRNA in the presence/in the absence of chemical substance (yeast gene YPR183W): 1.2

From US8192962B2, “Processes for detecting toxic substances” (Daikin Industries, Ltd., priority 2001, dated 2012)
